{
  "source": "patent US9598365B2",
  "about": "“Method for synthesizing cycloalkanyl[b]indoles, cycloalkanyl[b]benzofurans, cycloalkanyl[b]benzothiophenes, compounds and methods of use” (Trustees of Dartmouth College, priority 2012, dated 2017)",
  "key": {"GIP": {"system": "GIP", "assay": "Plasma GIP response to oral compound in mice", "type": "in vivo, Mice (male C57BL/6)", "conditions": "oral 100 mg/kg, plasma 30 minutes post-dose", "protocol": "(§1) Mice (male C57BL/6, 8-10 weeks of age) were fasted overnight by being placed in a clean cage without food. The next day, all mice were weighed and assigned to groups of similar body weights. Test compounds were formulated in 1% HEC, 0.25% TWEEN 80, 0.05% antifoam (vehicle control). Compounds 11ls and llu were orally dosed (100 mg/kg) and cardiac sticks were done on CO2 euthanized mice at 30 minutes post-dose. Blood (500+μL whole blood) from the cardiac stick was placed in chilled EDTA-plasma tubes with inhibitors, DPP4 inhibitor (5 μL/500 μL blood) and aprotinin (bovine lung, […]/500 μL blood), and stored on ice. Plasma was separated by centrifugation and aliquoted for compound exposure to total GIP and GLP-1 (X-36 amide). Plates for compound exposure were analyzed for absorption, distribution, metabolism, and excretion, while conventional kits were used for GLP-1 (x-36) amide (Mesoscale) and GIP (Millipore) analyses."}, "hNCI-H716 [1]": {"system": "hNCI-H716", "assay": "hNCI-H716 GLP-1 secretion", "type": "cell-based", "text": "(§2) Selected compounds of this invention were screened for K-Ras Wnt synthetic lethal, anti-angiogenic activity, Wnt pathway modulatory activity, insulin and GLP-1 secretion modulatory activity, GPR119 receptor agonist activity, mGlu2R antagonist activity, CGRP receptor antagonist activity, Apelin receptor agonist activity and hexokinase 2 inhibitory activity using the PD^2 and TD^2 Screening Panel (Eli Lilly & Company). See Lee, et al. (2011) J. Biomol. Screen. 16:588-602.\n(§3) In light of the above results, additional compounds (Table 7) were prepared and phenotypic assays were carried out using hNCI-H716 and mSTC-1 cell lines to monitor GLP-1 secretion (single point (SP) and concentration response curves (CRC)) (Table 8), as well as a secondary assay with pituitary cells (Table 9)."}, "hCGRP1": {"target": "hCGRP1 (Homo sapiens, UniProt O60894+Q16602)", "sequence (Q16602 23-461)": "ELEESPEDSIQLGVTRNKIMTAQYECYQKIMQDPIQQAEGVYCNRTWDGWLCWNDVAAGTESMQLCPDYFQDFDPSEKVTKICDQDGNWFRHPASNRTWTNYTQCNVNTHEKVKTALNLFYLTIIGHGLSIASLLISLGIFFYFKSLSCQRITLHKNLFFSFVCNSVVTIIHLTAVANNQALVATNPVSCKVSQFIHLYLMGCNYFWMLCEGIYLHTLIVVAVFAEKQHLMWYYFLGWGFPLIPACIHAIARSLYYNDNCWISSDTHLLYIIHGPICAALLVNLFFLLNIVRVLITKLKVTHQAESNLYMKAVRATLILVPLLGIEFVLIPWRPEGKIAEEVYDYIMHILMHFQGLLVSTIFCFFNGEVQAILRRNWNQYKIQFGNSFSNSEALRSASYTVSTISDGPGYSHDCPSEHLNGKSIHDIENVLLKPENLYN", "sequence (O60894 27-148 partner)": "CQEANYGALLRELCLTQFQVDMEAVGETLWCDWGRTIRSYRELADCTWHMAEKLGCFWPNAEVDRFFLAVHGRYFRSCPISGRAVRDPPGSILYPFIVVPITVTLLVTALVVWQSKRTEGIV", "assay": "CGRP receptor antagonist, hCGRP1 antagonism", "type": "cell-based", "text": "as §2"}, "hNCI-H716 [2]": {"system": "hNCI-H716", "assay": "hNCI basal LDH secretion", "type": "cell-based", "conditions": "read-out: Primary CRC (EC50, μM) hNCI Basal", "protocol": "as §3"}, "hApelin": {"target": "T1, hApelin (Homo sapiens, UniProt P35414)", "T1 sequence (P35414 1-380)": "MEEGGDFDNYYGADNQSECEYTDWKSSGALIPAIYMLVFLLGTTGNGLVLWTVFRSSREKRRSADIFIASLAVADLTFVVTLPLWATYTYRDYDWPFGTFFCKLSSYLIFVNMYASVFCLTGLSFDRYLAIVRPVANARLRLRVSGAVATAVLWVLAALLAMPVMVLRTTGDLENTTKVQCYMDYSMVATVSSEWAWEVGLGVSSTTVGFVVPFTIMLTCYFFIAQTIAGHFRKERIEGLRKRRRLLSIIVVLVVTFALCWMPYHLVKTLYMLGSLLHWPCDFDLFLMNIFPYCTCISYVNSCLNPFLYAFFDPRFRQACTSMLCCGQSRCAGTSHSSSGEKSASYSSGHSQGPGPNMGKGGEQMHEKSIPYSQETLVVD", "assay": "Apelin receptor agonist, hApelin agonism", "type": "cell-based", "conditions": "@ 30 μM", "text": "as §2"}, "hMGLUR2": {"target": "hMGLUR2 (Homo sapiens, UniProt Q14416)", "sequence (Q14416 19-872)": "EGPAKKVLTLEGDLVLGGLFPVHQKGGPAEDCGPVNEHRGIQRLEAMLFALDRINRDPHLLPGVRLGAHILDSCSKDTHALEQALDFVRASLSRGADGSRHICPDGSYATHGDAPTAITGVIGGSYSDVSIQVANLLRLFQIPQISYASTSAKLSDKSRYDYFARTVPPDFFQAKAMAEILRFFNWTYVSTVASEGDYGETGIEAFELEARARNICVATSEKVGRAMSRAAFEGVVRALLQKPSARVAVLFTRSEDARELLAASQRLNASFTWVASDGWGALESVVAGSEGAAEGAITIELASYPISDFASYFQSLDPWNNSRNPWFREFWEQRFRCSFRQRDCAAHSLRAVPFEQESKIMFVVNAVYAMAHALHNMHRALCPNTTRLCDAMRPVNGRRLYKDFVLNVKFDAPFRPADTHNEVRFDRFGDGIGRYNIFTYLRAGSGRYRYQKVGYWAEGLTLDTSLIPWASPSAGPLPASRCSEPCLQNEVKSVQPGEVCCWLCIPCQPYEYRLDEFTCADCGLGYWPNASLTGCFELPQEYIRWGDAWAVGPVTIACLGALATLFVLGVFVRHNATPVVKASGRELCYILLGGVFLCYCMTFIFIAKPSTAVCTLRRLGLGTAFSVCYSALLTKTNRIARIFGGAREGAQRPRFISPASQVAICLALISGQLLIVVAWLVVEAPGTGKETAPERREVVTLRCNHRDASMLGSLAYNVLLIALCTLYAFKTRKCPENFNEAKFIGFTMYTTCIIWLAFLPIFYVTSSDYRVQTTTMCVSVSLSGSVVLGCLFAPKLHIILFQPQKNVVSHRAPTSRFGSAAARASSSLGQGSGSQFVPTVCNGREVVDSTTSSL", "assay": "mGlu2R antagonist, hMGLUR2", "type": "cell-based", "text": "as §2"}, "hHK2": {"target": "T2, hHK2 (Homo sapiens, UniProt P52789)", "T2 sequence (P52789 1-917)": "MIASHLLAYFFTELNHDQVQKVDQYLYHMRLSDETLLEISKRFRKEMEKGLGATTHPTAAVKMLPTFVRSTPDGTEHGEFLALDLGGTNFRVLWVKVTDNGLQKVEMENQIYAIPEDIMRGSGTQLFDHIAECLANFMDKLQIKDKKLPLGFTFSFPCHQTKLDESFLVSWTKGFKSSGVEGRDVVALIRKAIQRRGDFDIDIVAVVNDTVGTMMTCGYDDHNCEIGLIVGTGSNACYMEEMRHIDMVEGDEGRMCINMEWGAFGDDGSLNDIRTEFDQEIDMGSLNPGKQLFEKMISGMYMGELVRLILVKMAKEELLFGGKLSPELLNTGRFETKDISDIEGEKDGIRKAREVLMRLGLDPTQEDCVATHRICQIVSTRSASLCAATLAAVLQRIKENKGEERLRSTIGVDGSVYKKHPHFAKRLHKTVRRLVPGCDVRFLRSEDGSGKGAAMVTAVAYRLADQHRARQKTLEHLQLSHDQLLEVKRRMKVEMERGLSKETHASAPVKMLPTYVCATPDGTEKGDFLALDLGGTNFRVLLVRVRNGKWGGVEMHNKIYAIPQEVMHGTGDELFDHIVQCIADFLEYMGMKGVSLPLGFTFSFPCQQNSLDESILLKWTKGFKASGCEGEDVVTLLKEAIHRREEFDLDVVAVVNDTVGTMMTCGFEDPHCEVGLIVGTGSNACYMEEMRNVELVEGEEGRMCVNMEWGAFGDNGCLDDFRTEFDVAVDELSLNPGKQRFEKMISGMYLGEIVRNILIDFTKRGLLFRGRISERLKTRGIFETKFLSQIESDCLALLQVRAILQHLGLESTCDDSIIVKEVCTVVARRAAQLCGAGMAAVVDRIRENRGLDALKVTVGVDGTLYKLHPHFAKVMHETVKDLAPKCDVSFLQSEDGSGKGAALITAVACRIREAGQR", "assay": "Hexokinase 2 inhibitor, hHK2 ADP-FP", "type": "biochemical", "text": "as §2"}, "Insulin Secretion": {"system": "Insulin Secretion", "assay": "Insulin secretion, Secretion Hi Gluc", "type": "cell-based", "text": "as §2"}, "Angio Tube Area": {"system": "Angio Tube Area", "assay": "Anti-angiogenic activity, Angio Tube Area", "type": "cell-based", "conditions": "read-out: Angio Tube Area % Inhibit", "text": "as §2"}, "Co1o320": {"system": "Co1o320", "assay": "K-Ras Wnt synthetic lethal, Co1o320 KrasSL", "type": "cell-based", "conditions": "read-out: Co1o320 KrasSL % Inhibit", "text": "as §2"}, "HCT116": {"system": "HCT116", "assay": "K-Ras Wnt synthetic lethal, HCT116 KrasSL", "type": "cell-based", "conditions": "Homo sapiens, HCT-116, read-out: HCT116 KrasSL % Inhibit", "text": "as §2"}, "Pituitary Cells": {"system": "Pituitary Cells", "assay": "Secondary assay, pituitary cells growth hormone secretion", "type": "cell-based", "conditions": "@ 3.3 μM", "protocol": "as §3"}, "GLP-1 (X-36 amide)": {"system": "GLP-1 (X-36 amide)", "assay": "Plasma GLP-1 response to oral compound in mice", "type": "in vivo, Mice (male C57BL/6)", "conditions": "oral 100 mg/kg, plasma 30 minutes post-dose", "protocol": "as §1"}},
  "note": "Values joined by “and” are separate entries in the source; they are usually repeats but may differ in a detail not shown here. Identical values can stand only once.",
  "data": [
    {"smiles": "CC1(C)c2c([nH]c3ccc(Cl)cc23)C2C=CC1C2", "note": "(stereo not shown) [Compound 11s]", "values": [
      {"measurement": "Avg. GIP (pg/mL) ±SEM", "setting": "GIP", "value": "23.42 ± 7.44", "unit": "pg/mL"},
      {"measurement": "activation at 2 µM", "setting": "hNCI-H716 [1]; 2 μM, GLP-1 secretion, single point, read-out: Primary SP hNCI (% Stim.)", "value": -1.7, "unit": "%"},
      {"measurement": "activation at 20 µM", "setting": "hNCI-H716 [1]; 20 μM, GLP-1 secretion, single point, read-out: Primary SP hNCI (% Stim.)", "value": 108, "unit": "%"},
      {"measurement": "hNCI GLP-1 Secretion % Stimulation", "setting": "hNCI-H716 [1]; @ 2 μM", "value": "−1.7", "unit": "%"},
      {"measurement": "hNCI GLP-1 Secretion % Stimulation", "setting": "hNCI-H716 [1]; @ 20 μM", "value": 108, "unit": "%"},
      {"measurement": "EC50", "setting": "hNCI-H716 [1]; GLP-1 secretion, concentration response curve, read-out: Primary CRC (EC50, μM) hNCI", "value": "34.8 µM and 33.5 µM and 23.2 µM and > 40 µM"},
      {"measurement": "EC50", "setting": "hNCI-H716 [1]; average of three independent experiments, read-out: hNCI GLP-1 Secretion EC50", "value": 34.8, "unit": "µM"},
      {"measurement": "EC50", "setting": "hNCI-H716 [1]; secretion and/or production of GLP-1, read-out: EC50 values (Table 6)", "value": 35, "unit": "µM"},
      {"measurement": "inhibition at 30 µM", "setting": "hCGRP1", "value": 77.1, "unit": "%"},
      {"measurement": "EC50", "setting": "hNCI-H716 [2]", "value": "> 40", "unit": "µM"},
      {"measurement": "hApelin agonism % Stimulation", "setting": "hApelin", "value": "−46.2", "unit": "%"},
      {"measurement": "inhibition at 50 µM", "setting": "hMGLUR2", "value": -20.4, "unit": "%"},
      {"measurement": "inhibition at 20 µM", "setting": "hHK2", "value": 5.5, "unit": "%"},
      {"measurement": "Secretion Hi Gluc % Stimulation", "setting": "Insulin Secretion; @ 2 μM", "value": "−1.2", "unit": "%"},
      {"measurement": "Secretion Hi Gluc % Stimulation", "setting": "Insulin Secretion; @ 10 μM", "value": 15.8, "unit": "%"},
      {"measurement": "inhibition at 2 µM", "setting": "Angio Tube Area; @ 2 μM", "value": 21.7, "unit": "%"},
      {"measurement": "inhibition at 10 µM", "setting": "Angio Tube Area; @ 10 μM", "value": 21.8, "unit": "%"},
      {"measurement": "inhibition at 0.2 µM", "setting": "Co1o320; @ 0.2 μM", "value": 33.3, "unit": "%"},
      {"measurement": "inhibition at 2 µM", "setting": "Co1o320; @ 2 μM", "value": 15.8, "unit": "%"},
      {"measurement": "inhibition at 20 µM", "setting": "Co1o320; @ 20 μM", "value": 150, "unit": "%"},
      {"measurement": "inhibition at 0.2 µM", "setting": "HCT116; @ 0.2 μM", "value": 2.3, "unit": "%"},
      {"measurement": "inhibition at 2 µM", "setting": "HCT116; @ 2 μM", "value": -38, "unit": "%"},
      {"measurement": "inhibition at 20 µM", "setting": "HCT116; @ 20 μM", "value": 96.4, "unit": "%"},
      {"measurement": "Pituitary Cells (Growth Hormone Secretion, % Stimulation)", "setting": "Pituitary Cells", "value": "−10.0% and −17.7% and −18.6%"},
      {"measurement": "Avg. GLP-1 (pg/mL) ±SEM", "setting": "GLP-1 (X-36 amide)", "value": "5.52 ± 1.18", "unit": "pg/mL"}
    ]}
  ]
}
